Test results published in patent US20020022647A1, “2-(4-bromo or 4-iodo phenylamino) benzoic acid derivatives” (priority 1997, published 2002).

Legend:
[1] = molecular target: GST-MEK (p45MEK) and GST-MAPK (p44MAP kinase) (Homo sapiens, UniProt Q02750); assay: Cascade assay for inhibitors of the MAP kinase pathway (In Vitro); assay type: biochemical; details: incorporation of 32P into myelin basic protein
Protocol: Cascade Assay for Inhibitors of the MAP Kinase Pathway
Incorporation of ^32P into myelin basic protein (MBP) was assayed in the presence of a glutathione S-transferase fusion protein containing p44MAP kinase (GST-MAPK) and a glutathione S-transferase fusion protein containing p45MEK (GST-MEK). The assay solution contained 20 mM HEPES, pH 7.4, 10 mM MgCl2, 1 mM MnCl2, 1 mM EGTA, 50 μM [γ-^32P]ATP, 10 μg GST-MEK0.5 μg GST-MAPK and 40 μg MBP in a final volume of 100 μL. Reactions were stopped after 20 minutes by addition of trichloroacetic acid and filtered through a GF/C filter mat. ^32P retained on the filter mat was determined using a 1205 Betaplate. Compounds were assessed at 10 μM for ability to inhibit incorporation of ^32P.
To ascertain whether compounds were inhibiting GST-MEK or GST MAPK, two additional protocols were employed. In the first protocol, compounds were added to tubes containing GST-MEK, followed by addition of GST-MAPK, MBP and [γ-^32P]ATP. In the second protocol, compounds were added to tubes containing both GST-MEK and GST-MAPK, followed by MBP and [γ-^32P]ATP.

[2] = system: activation of MAP kinase in whole cells; assay: In Vivo (Cell Culture): whole cell MAP kinase assay; assay type: cell-based
Protocol: Whole Cell MAP Kinase Assay
To determine if compounds were able to block activation of MAP kinase in whole cells, the following protocol was used: Cells were plated in multi-well plates and grown to confluence. Cells were then serum-deprived overnight. Cells were exposed to the desired concentrations of compound or vehicle (DMSO) for 30 minutes, followed by addition of a growth factor, for example, PDGF (100 ng/mL). After a 5-minute treatment with the growth factor, cells were washed with PBS, then lysed in a buffer consisting of 70 mM NaCl, 10 mM HEPES (pH 7.4), 50 mM glycerol phosphate, and 1% Triton X-100. Lysates were clarified by centrifugation at 13,000× g for 10 minutes. Five micrograms of the resulting supernatants were incubated with 10 μg microtubule associated protein-2 (Map2) for 15 minutes at 30° C. in a final volume of 25 μL containing 50 mM Tris (pH 7.4), 10 mM MgCl2, 2 mM EGTA and 30 uM [γ-^32P]ATP. Reactions were terminated by addition of Laemmli sample buffer. Phosphorylated Map2 was resolved on 7.5% acrylamide gels and incorporated radioactivity determined by autoradiography and subsequent excision of the bands followed by scintillation counting.

GST-MEK (p45MEK) and GST-MAPK (p44MAP kinase), sequence (Q02750 whole entry): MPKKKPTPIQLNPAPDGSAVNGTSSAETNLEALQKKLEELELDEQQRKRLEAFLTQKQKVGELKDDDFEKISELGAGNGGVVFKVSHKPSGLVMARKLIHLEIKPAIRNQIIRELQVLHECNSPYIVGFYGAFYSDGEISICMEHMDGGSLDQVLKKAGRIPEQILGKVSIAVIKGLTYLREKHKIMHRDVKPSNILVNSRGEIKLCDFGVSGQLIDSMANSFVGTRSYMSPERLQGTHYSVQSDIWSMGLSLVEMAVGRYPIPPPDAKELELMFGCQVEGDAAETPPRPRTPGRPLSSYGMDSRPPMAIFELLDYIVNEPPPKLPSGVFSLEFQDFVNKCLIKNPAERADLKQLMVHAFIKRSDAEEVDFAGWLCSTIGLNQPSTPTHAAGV

`Cc1cc(I)ccc1Nc1c(C(=O)NCCO)cc(Br)c(F)c1F` [Example 53, 5-Bromo-3,4-difluoro-N-(2-hydroxy-ethyl)-2-(4-iodo-2-methyl-phenylamino)-benzamide] gave an IC50 [1] of 47 nM and an IC50 [2] of 540 nM.
With `Cc1cc(I)ccc1Nc1ccc(Cl)cc1C(=O)NCC(=O)O` [Example 40, [5-Chloro-2-(4-iodo-2-methyl-phenylamino)-benzoylamno]-acetic acid] the IC50 [1] was 651 nM and the inhibition at 30 µM ([2]; at 30 μM) was 30%.
In the case of `Cc1cc(I)ccc1Nc1ccccc1-c1nnn[nH]1` [Example 208], the IC50 [1] is reported as 1215 nM and the melting point is reported as 231 °C (dec.).
`O=C(O)c1cc(Br)c(F)c(F)c1Nc1ccc(I)cc1Cl` [Example 220, 5-Bromo-2-(2-chloro-4-iodo-phenylamino)-3,4-difluoro-benzoic acid] gave an IC50 [1] of 29 nM.
Molecule `COc1ccc(NC(=O)c2ccc(OC)c([N+](=O)[O-])c2)cc1` [Example 32, 4-Methoxy-N-(4-methoxy-phenyl)-3-nitro-benzamide] has an IC50 [1] of 28 nM.
In the case of `Cc1cc(I)ccc1Nc1ccc(I)cc1C(=O)O` [Example 21, 5-Iodo-2-(4-iodo-2-methyl-phenylamino)-benzoic acid], the IC50 [1] is reported as 569 nM.
Molecule `Cc1cc(I)ccc1Nc1ccc(Cl)cc1C(=O)NCCO` [Example 31, 5-Chloro-N-(2-hydroxyethl)-2-(4-iodo-2-methyl-phenylamino)-benzamide] has an IC50 [1] of 226 nM and a melting point of 120 to 121 °C.
Work on `Cc1cc(I)ccc1Nc1cc(F)ccc1C(=O)NCC(O)CO` (stereo not drawn) [Example 57, N-(2,3-Dihydroxy-propyl)-4-fluoro-2-(4-iodo-2-methyl-phenylamino)-benzamide] yielded an IC50 [1] of 399 nM.
With `O=C(O)c1cc([N+](=O)[O-])ccc1Nc1ccc(I)cc1F` [Example 12, 2-(2-Fluoro-4-iodo-phenylamino)-5-nitro-benzoic acid] the IC50 [1] was 135 nM.
`O=C(O)c1cc([N+](=O)[O-])ccc1Nc1ccc(I)cc1Cl` [Example 9, 2-(2-Chloro-4-iodo-phenylamino)-5-nitro-benzoic acid] showed an IC50 [1] of 97 nM.
`Cc1cc(I)ccc1Nc1cc(F)ccc1C(N)=O` [Example 33, 4-Fluoro-2-(4-iodo-2-methyl-phenylamino)-benzaniide] showed an IC50 [1] of 52 nM.
Molecule `Cc1cc(I)ccc1Nc1ccc(Br)cc1C(N)=O` [Example 38, 5-Bromo-2-(4-iodo-2-methyl-phenylamino)-benzamide] has an IC50 [1] of 412 nM.
Work on `Cc1cc(I)ccc1Nc1cc(Cl)ccc1C(=O)O` [Example 18, 4-Chloro-2-(4-iodo-2-methyl-phenylamino)-benzoic acid] yielded an IC50 [1] of 446 nM.
`Cc1cc(I)ccc1Nc1ccc([N+](=O)[O-])cc1-c1nnn[nH]1` [Example 209] gave an IC50 [1] of 1372 nM and a melting point of 205 to 208 °C.
In the case of `Cc1cc(I)ccc1Nc1cccc(Cl)c1C(=O)O` [Example 29, 2-Chloro-6-(4-iodo-2-methyl-phenylamino)-benzoic acid], the IC50 [1] is reported as 5331 nM.
For `COc1cc(I)ccc1Nc1c(C(=O)O)ccc(F)c1F` [Example 17, 3,4-Difluoro-2-(4-iodo-2-methoxy-phenylamino)-benzoic acid], the IC50 [1] was 434 nM.
`C=CCNC(=O)c1cc(Cl)ccc1Nc1ccc(I)cc1C` [Example 193, N-Allyl-5-chloro-2-(4-iodo-2-methyl-phenylamino)-benzamide] showed an IC50 [1] of 2902 nM.
In the case of `Cc1cc(I)ccc1Nc1c(C(=O)NCCN2CCCCC2)cc(Br)c(F)c1F` [Example 55, 5-Bromo-3,4-difluoro-2-(4-iodo-2-methyl-phenylamino)-N-(2-piperidin-1-yl-ethyl)-benzamide], the IC50 [1] is reported as 114 nM.
For `O=C(O)c1cc(Cl)ccc1Nc1ccc(I)cc1Cl` [Example 5, 5-Chloro-2-(2-chloro-4-iodo-phenylamino)--benzoic acid], the IC50 [1] was 66 nM.
With `Cc1cc(I)ccc1Nc1ccc(Cl)cc1C(=O)NCCN1CCCC1` [Example 96, 5-Chloro-2-(4-iodo-2-methyl-phenylamino)-N-(2-pyrrolidin-1-yl-ethyl)-benzamide] the IC50 [1] was 374 nM.
In the case of `Cc1c(Nc2cc(F)ccc2C(=O)O)ccc(I)c1F` [Example 10, 4-Fluoro-2-(3-fluoro-4-iodo-2-methyl-phenylamino)-benzoic acid], the IC50 [1] is reported as 101 nM.
For `Cc1cc(I)ccc1Nc1ccc([N+](=O)[O-])cc1C(=O)N1CCC(O)C1` (stereo not drawn) [Example 95, (3-Hydroxy-pyrrolidin-1-yl)-[2-(4-iodo-2-methyl-phenylamino)-5-nitro-phenyl]-], the IC50 [1] was 1001 nM.
Molecule `Cc1cc(I)ccc1Nc1cc(F)ccc1CO` [Example 49, 4-Fluoro-2-(4-iodo-2-methyl-2henylamino)-benzyl alcohol] has an IC50 [1] of 418 nM and a melting point of 99 to 100.5 °C.
In the case of `Cc1cc(I)ccc1Nc1c(C(=O)O)cc(Br)c(F)c1F` [Example 4, 5-Bromo-3,4-difluoro-2-(4-iodo-2-methyl-phenylamino)-benzoic acid], the IC50 [1] is reported as 5 nM.
For `CNC(=O)c1ccc(F)cc1Nc1ccc(I)cc1C` [Example 34], the IC50 [1] was 98 nM.
Work on `Cc1cc(I)ccc1Nc1ccc(Cl)cc1C(=O)N(C)c1ccccc1` [Example 190, 5-Chloro-2-(4-iodo-2-methyl-phenylamino)-N-methyl-N-phenyl-benzamide] yielded an IC50 [1] of 921 nM.
`Cc1cc(I)ccc1Nc1ccc([N+](=O)[O-])cc1C(=O)O` [Example 11, 2-(4-Iodo-2-methyl-phenylamino)-5-nitro-benzoic acid] gave an IC50 [1] of 128 nM.
